Data on five compounds can be found in ChEMBL document CHEMBL4808235, “Identification of 6-hydroxy-5-phenyl sulfonylpyrimidin-4(1H)-one APJ receptor agonists” (Bioorg Med Chem Lett, 2021).

Test system in the first data set: not listed separately
The data set can be described thus: Permeability of the compound at pH 5.5 by PAMPA. The class given is ADME. The settings on record: read-out: permeability. On the technique in general: The PAMPA barrier holds no transporters, so it reflects passive diffusion.
Turning to `CCCCc1[nH]c(=O)c(S(=O)(=O)c2ccc(-c3ccncc3C)cc2)c(O)c1-c1c(OC)cccc1OC`, the Papp came out at 35.5 ×10⁻⁶ cm/s.
On to `CCCCc1nc(=O)c(S(=O)(=O)c2ccc(C)cc2)c(O)n1-c1c(OC)cccc1OC`, for which the Papp was determined as 24.3 ×10⁻⁶ cm/s.
The same measure, in the same setting: under `CCCCc1[nH]c(=O)c(S(=O)(=O)c2ccc(-n3cc(Cl)ccc3=O)cc2)c(O)c1-c1c(OC)cccc1OC` stands 28.5 ×10⁻⁶ cm/s.
As to `CCCCc1nc(=O)c(S(=O)(=O)c2ccc(-n3ccccc3=O)cc2)c(O)n1-c1c(OC)cccc1OC`, the Papp worked out at 1.2 ×10⁻⁶ cm/s.
On to `CCCCc1nc(=O)c(S(=O)(=O)c2ccc(-c3ccnc(NC(=O)C4CC4)c3)cc2)c(O)n1-c1c(OC)cccc1OC`, for which the Papp amounted to 18.3 ×10⁻⁶ cm/s.

Test system in another data set: not listed separately
Put plainly: Cmax in rat at 1 mg/kg, po. The class given is ADME, organism-based. More on the design: route oral, dose 1 mg/kg. The settings on record: in vivo.
For orientation: Cmax means the peak of the concentration-time curve. As to `CCCCc1nc(=O)c(S(=O)(=O)c2ccc(-c3ccnc(NC(=O)C4CC4)c3)cc2)c(O)n1-c1c(OC)cccc1OC`, the Cmax came to 400 nM.

Test system in another data set: not listed separately
Put plainly: Metabolic stability in human liver microsomes assessed as parent compound remaining incubated for 10 mins in presence of NADPH. To be noted: read-out: Stabilty. The class given is ADME, Microsome. (Liver microsomes are a subcellular fraction often used to study metabolism.)
Take `CCCCc1[nH]c(=O)c(S(=O)(=O)c2ccc(-c3ccncc3C)cc2)c(O)c1-c1c(OC)cccc1OC`: the remaining at 10 min came out at 80%.
On the same count and under the same terms, the figure for `CCCCc1nc(=O)c(S(=O)(=O)c2ccc(C)cc2)c(O)n1-c1c(OC)cccc1OC` is 94%; for `CCCCc1[nH]c(=O)c(S(=O)(=O)c2ccc(-n3cc(Cl)ccc3=O)cc2)c(O)c1-c1c(OC)cccc1OC` it is 97%.
On the same count and under the same terms, the figure for `CCCCc1nc(=O)c(S(=O)(=O)c2ccc(-n3ccccc3=O)cc2)c(O)n1-c1c(OC)cccc1OC` is 87%; for `CCCCc1nc(=O)c(S(=O)(=O)c2ccc(-c3ccnc(NC(=O)C4CC4)c3)cc2)c(O)n1-c1c(OC)cccc1OC` it is 84%.

Test system in the next data set: not listed separately
The data set can be described thus: Half life in rat at 1 mg/kg, po. The settings on record: in vivo. The class given is ADME, organism-based.
As usually defined, the half-life is the time needed for the level to fall by half in the phase considered. High values mean slow decline, low ones rapid decline. `CCCCc1nc(=O)c(S(=O)(=O)c2ccc(-c3ccnc(NC(=O)C4CC4)c3)cc2)c(O)n1-c1c(OC)cccc1OC`: the half-life is 78 min.

Test system in another data set: not listed separately
The data set can be described thus: Metabolic stability in rat liver microsomes assessed as parent compound remaining incubated for 10 mins in presence of NADPH. The settings on record: read-out: Stabilty. The class given is ADME, Microsome.
For the compound `CCCCc1[nH]c(=O)c(S(=O)(=O)c2ccc(-c3ccncc3C)cc2)c(O)c1-c1c(OC)cccc1OC`, the remaining at 10 min was determined as 57%.
Same read-out and setting: the figure for `CCCCc1nc(=O)c(S(=O)(=O)c2ccc(C)cc2)c(O)n1-c1c(OC)cccc1OC` is 74%; for `CCCCc1[nH]c(=O)c(S(=O)(=O)c2ccc(-n3cc(Cl)ccc3=O)cc2)c(O)c1-c1c(OC)cccc1OC` it is 72%; for `CCCCc1nc(=O)c(S(=O)(=O)c2ccc(-n3ccccc3=O)cc2)c(O)n1-c1c(OC)cccc1OC` it is 83%.
Regarding `CCCCc1nc(=O)c(S(=O)(=O)c2ccc(-c3ccnc(NC(=O)C4CC4)c3)cc2)c(O)n1-c1c(OC)cccc1OC`, the remaining at 10 min turned out to be 72%.

Another data set addresses T1, Apelin receptor (Homo sapiens, UniProt P35414).
T1 sequence (P35414 whole entry): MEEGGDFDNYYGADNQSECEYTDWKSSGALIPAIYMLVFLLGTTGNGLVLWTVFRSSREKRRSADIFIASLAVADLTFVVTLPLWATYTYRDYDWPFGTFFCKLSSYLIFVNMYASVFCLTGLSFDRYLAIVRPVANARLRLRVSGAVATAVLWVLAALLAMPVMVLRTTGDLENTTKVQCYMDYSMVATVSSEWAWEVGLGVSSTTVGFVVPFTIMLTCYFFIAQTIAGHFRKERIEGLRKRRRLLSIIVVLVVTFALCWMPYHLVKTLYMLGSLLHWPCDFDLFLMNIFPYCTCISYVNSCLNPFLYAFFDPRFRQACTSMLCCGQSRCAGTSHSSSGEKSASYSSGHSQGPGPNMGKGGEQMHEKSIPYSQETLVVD
Put plainly: Agonist activity at human APJ receptor assessed as effect on cAMP accumulation by cAMP-Glo assay. The class given is functional.
Conditions: not given
(In general: Changes in cAMP serve as a functional read-out for many G protein-coupled receptors.)
By EC50 is commonly meant the concentration that produces a half-maximal response. With `CCCCc1[nH]c(=O)c(S(=O)(=O)c2ccc(-c3ccncc3C)cc2)c(O)c1-c1c(OC)cccc1OC`, the 50% effective concentration (EC50) is 0.04 nM.
Turning to `CCCCc1nc(=O)c(S(=O)(=O)c2ccc(C)cc2)c(O)n1-c1c(OC)cccc1OC`, the EC50 turned out to be 0.2 nM.
As for `CCCCc1[nH]c(=O)c(S(=O)(=O)c2ccc(-n3cc(Cl)ccc3=O)cc2)c(O)c1-c1c(OC)cccc1OC`, the EC50 was determined as 0.03 nM.
Still for that read-out and setting: the figure for `CCCCc1nc(=O)c(S(=O)(=O)c2ccc(-n3ccccc3=O)cc2)c(O)n1-c1c(OC)cccc1OC` is 0.02 nM; for `CCCCc1nc(=O)c(S(=O)(=O)c2ccc(-c3ccnc(NC(=O)C4CC4)c3)cc2)c(O)n1-c1c(OC)cccc1OC` it is 0.03 nM.

The target of the next data set is T2, Apelin receptor (Rattus norvegicus, UniProt Q9JHG3).
T2 sequence (Q9JHG3 whole entry): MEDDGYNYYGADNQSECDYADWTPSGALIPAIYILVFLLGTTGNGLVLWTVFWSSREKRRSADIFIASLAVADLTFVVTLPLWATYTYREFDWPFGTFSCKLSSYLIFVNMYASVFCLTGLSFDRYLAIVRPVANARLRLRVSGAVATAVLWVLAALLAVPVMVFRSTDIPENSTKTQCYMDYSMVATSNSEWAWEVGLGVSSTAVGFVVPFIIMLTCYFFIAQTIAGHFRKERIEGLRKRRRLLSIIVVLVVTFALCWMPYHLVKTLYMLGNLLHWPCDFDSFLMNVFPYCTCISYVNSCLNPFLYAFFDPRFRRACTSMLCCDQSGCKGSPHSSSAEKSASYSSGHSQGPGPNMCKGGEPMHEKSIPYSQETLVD
Put plainly: Agonist activity at rat APJ receptor assessed as effect on cAMP accumulation by cAMP-Glo assay. The class given is functional.
Conditions: not given
With `CCCCc1[nH]c(=O)c(S(=O)(=O)c2ccc(-c3ccncc3C)cc2)c(O)c1-c1c(OC)cccc1OC`, the EC50 stood at 0.4 nM.
Regarding `CCCCc1nc(=O)c(S(=O)(=O)c2ccc(C)cc2)c(O)n1-c1c(OC)cccc1OC`, the EC50 was found to be 0.3 nM.
On to `CCCCc1[nH]c(=O)c(S(=O)(=O)c2ccc(-n3cc(Cl)ccc3=O)cc2)c(O)c1-c1c(OC)cccc1OC`, for which the EC50 came out at 0.2 nM.
On the same count and under the same terms, the figure for `CCCCc1nc(=O)c(S(=O)(=O)c2ccc(-c3ccnc(NC(=O)C4CC4)c3)cc2)c(O)n1-c1c(OC)cccc1OC` is 0.04 nM.

Test system in the next data set: not listed separately
Put plainly: Permeability of the compound at pH 7.4 by PAMPA. The class given is ADME. The settings on record: read-out: permeability.
On to `CCCCc1[nH]c(=O)c(S(=O)(=O)c2ccc(-c3ccncc3C)cc2)c(O)c1-c1c(OC)cccc1OC`, for which the Papp was found to be 7.6 ×10⁻⁶ cm/s.
`CCCCc1nc(=O)c(S(=O)(=O)c2ccc(C)cc2)c(O)n1-c1c(OC)cccc1OC`: the Papp came out at 0.7 ×10⁻⁶ cm/s.
Same read-out and setting: the figure for `CCCCc1[nH]c(=O)c(S(=O)(=O)c2ccc(-n3cc(Cl)ccc3=O)cc2)c(O)c1-c1c(OC)cccc1OC` is 2.2 ×10⁻⁶ cm/s.
Consider `CCCCc1nc(=O)c(S(=O)(=O)c2ccc(-n3ccccc3=O)cc2)c(O)n1-c1c(OC)cccc1OC`, for which the Papp was 0.1 ×10⁻⁶ cm/s.
With `CCCCc1nc(=O)c(S(=O)(=O)c2ccc(-c3ccnc(NC(=O)C4CC4)c3)cc2)c(O)n1-c1c(OC)cccc1OC`, the Papp turned out to be 1.1 ×10⁻⁶ cm/s.

Test system in another data set: not listed separately
Put plainly: Metabolic stability in mouse liver microsomes assessed as parent compound remaining incubated for 10 mins in presence of NADPH. The class given is ADME, Microsome. To be noted: read-out: Stabilty.
`CCCCc1[nH]c(=O)c(S(=O)(=O)c2ccc(-c3ccncc3C)cc2)c(O)c1-c1c(OC)cccc1OC`: the remaining at 10 min came out at 39%.
In the case of `CCCCc1nc(=O)c(S(=O)(=O)c2ccc(C)cc2)c(O)n1-c1c(OC)cccc1OC`, the remaining at 10 min was 80%.
Turning to `CCCCc1[nH]c(=O)c(S(=O)(=O)c2ccc(-n3cc(Cl)ccc3=O)cc2)c(O)c1-c1c(OC)cccc1OC`, the remaining at 10 min amounted to 64%.
On the same count and under the same terms, the figure for `CCCCc1nc(=O)c(S(=O)(=O)c2ccc(-n3ccccc3=O)cc2)c(O)n1-c1c(OC)cccc1OC` is 63%; for `CCCCc1nc(=O)c(S(=O)(=O)c2ccc(-c3ccnc(NC(=O)C4CC4)c3)cc2)c(O)n1-c1c(OC)cccc1OC` it is 72%.

Test system in another data set: not listed separately
Put plainly: AUC (0 to 24 hrs) in rat at 1 mg/kg, po. More on the design: time < 24 hr, route oral, dose 1 mg/kg. The settings on record: in vivo. The class given is ADME, organism-based.
In general, AUC(0-t) refers to exposure summed from dosing to a finite time, without extrapolation to infinity. A high value points to more exposure. In the case of `CCCCc1nc(=O)c(S(=O)(=O)c2ccc(-c3ccnc(NC(=O)C4CC4)c3)cc2)c(O)n1-c1c(OC)cccc1OC`, the AUC(0-t) at 24 h was 0.6 µM·h.

For a further data set, the target named is T3, Apelin receptor (Mus musculus, UniProt Q9WV08).
T3 sequence (Q9WV08 whole entry): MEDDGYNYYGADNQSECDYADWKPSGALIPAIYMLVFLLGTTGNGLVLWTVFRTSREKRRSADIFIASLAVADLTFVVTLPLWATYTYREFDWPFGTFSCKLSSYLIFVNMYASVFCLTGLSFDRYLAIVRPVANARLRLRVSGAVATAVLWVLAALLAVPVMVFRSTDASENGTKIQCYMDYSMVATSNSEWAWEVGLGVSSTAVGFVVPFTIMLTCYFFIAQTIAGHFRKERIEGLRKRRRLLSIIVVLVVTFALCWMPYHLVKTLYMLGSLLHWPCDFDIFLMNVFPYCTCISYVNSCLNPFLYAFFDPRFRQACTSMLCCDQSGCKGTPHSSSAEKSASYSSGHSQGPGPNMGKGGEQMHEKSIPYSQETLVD
Put plainly: Agonist activity at mouse APJ receptor assessed as effect on cAMP accumulation by cAMP-Glo assay.
Conditions: not given
As for `CCCCc1[nH]c(=O)c(S(=O)(=O)c2ccc(-c3ccncc3C)cc2)c(O)c1-c1c(OC)cccc1OC`, the EC50 worked out at 0.1 nM.
Same read-out and setting: the figure for `CCCCc1nc(=O)c(S(=O)(=O)c2ccc(C)cc2)c(O)n1-c1c(OC)cccc1OC` is 0.3 nM; for `CCCCc1[nH]c(=O)c(S(=O)(=O)c2ccc(-n3cc(Cl)ccc3=O)cc2)c(O)c1-c1c(OC)cccc1OC` it is 0.1 nM.
Consider `CCCCc1nc(=O)c(S(=O)(=O)c2ccc(-n3ccccc3=O)cc2)c(O)n1-c1c(OC)cccc1OC`, for which the EC50 came to 0.03 nM.
Same read-out and setting: under `CCCCc1nc(=O)c(S(=O)(=O)c2ccc(-c3ccnc(NC(=O)C4CC4)c3)cc2)c(O)n1-c1c(OC)cccc1OC` stands 0.04 nM.
